Data on 22 compounds can be found in patent US20020010182A1, “Piperazine derivatives as tachykinin antagonists” (FUJISAWA PHARMACEUTICAL CO., LTD., priority 1995, published 2002).

The term inhibition denotes the percentage by which the read-out fell short of the control.

Where a name gives a salt, the structure may show the parent alone.

The target in this assay is T1, h-NK1 receptors (Homo sapiens, UniProt P25103).
T1 construct: expressed in transfected cells; host or cells: CHO cells (permanent expression), crude cell membranes
T1 sequence (P25103 whole entry): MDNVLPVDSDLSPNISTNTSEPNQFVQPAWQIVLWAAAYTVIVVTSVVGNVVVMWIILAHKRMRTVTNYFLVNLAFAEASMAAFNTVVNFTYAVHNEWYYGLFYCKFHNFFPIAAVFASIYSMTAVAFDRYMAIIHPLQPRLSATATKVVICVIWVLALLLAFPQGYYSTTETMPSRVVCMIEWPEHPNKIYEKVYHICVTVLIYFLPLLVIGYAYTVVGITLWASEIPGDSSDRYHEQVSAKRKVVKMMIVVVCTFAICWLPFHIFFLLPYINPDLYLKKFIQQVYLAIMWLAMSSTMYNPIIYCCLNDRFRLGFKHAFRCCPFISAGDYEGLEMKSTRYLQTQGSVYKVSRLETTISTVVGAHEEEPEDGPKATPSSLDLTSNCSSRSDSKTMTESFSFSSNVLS
Briefly: Evaluation of NK1 antagonist transport efficiency to the central nervous system using a h-NK1 receptor binding assay. The conditions noted are these: 5 min, brain extract of male SD rats 5 min after i.v. injection of test compound, CHO cell membranes expressing h-NK1, read-out: inhibition rate of 125I-BH-Substance P binding to h-NK1 receptors. As for the experimental part: A. Evaluation of NK1 Antagonist Transport Efficiency to the Cental Nervous System Using a h-NK1 Receptor Binding Assay
(1) Administration of Test Compound and Extraction of the Compound From Brain
Male SD rats were given an i.v. injection of a solution containing a test compound (1 mg/kg). 5 Min later the animals were anesthetized by ether, bled and perfused through the aorta ascendens with 20 ml of saline. The brain was rapidly removed, weighed and homogenized in 4 vol. ice-cold distilled water by using Polytoron (KINEMATICA). To extract the test compound, 500 μl of the homogenate, 100 μl of methanol, 500 μl of 0.1 N NaOH and 4 ml of ethyl acetate were mixed by shaking for 10 min at room temperature. The organic phase (2.5 ml) was recovered by centrifugation at 3,000 rpm for 10 min, dried and dissolved in dimethyl sulfoxide.
(2) h-NK1 Receptor Binding Assay
(a) Crude CHO Cell Membrane Preparation
CHO cells permanently expressing h-NK1 receptors were harvested and homogenized with a Dounce homogenizer at 4° C. in a buffer (0.25 M sucrose, 25 mM Tris-HCl (pH 7.4), 10 mM MgCl2, 1 mM EDTA, 5 μg/ml p-APMSF). The homogenate was centrifuged (500×g, 10 min), and the pellet was resuspended in the same buffer, homogenized, and centrifuged. The two supernatants were combined and centrifuged (100,000×g, 1 hour). The crude cell membranes thus isolated were resuspended in a buffer (25 MM Tris-HCl (pH 7.4), 10 mM MgCl2, 1 mM EDTA, 5 μg/ml p-APMSF) and stored at −80° C. until use.
(b) ^125I-BH-Substance P Binding to the Prepared Membrane
Cell membranes (6 μg/ml) were incubated with ^125I-BH-Substance P (0.1 nM) with or without the extracted compounds in 0.25 ml of a medium (50 mM Tris-HCl (pH 7.4), 5 mM MnCl2, 20 μg/ml chymrostatin, 40 μg/ml bacitracin, 4 μg/ml leupeptin, 5 μg/ml p-APMSF, 200 μg/ml BSA) at 22° C. for 90 min. At the end of the incubation period, the contents were quickly filtered through a Blue Mat 11740 filter (pretreated with 0.1% polyethylenimine for 3 hours prior to use) by using SKATRON Cell Harvester. The filter was then washed with a washing buffer (50 mM Tris-HCl (pH 7.4), 5 mM MnCl2) . The radioactivity was counted by using an auto gamma counter (Packard RIASTAR 5420A). All data presented are specific binding defined as that displaceable by 3 μM unlabeled Substance P.

Turning to `O=C(c1cc(C(F)(F)F)cc(C(F)(F)F)c1)N1CCN(CCCCN2CCOCC2)C[C@H]1Cc1c[nH]c2ccccc12` [Example 73, (2R)-1-[3,5-bis(trifluoromethyl)benzoyl]-2-(1H-indol-3-ylmethyl)-4-(4-morpholinobutyl) piperazine dihydrochloride], the inhibition at 1 mg/kg is > 80%. Take `O=C(c1cc(C(F)(F)F)cc(C(F)(F)F)c1)N1CCN(CCCN2CCc3sccc3C2)C[C@H]1Cc1c[nH]c2ccccc12` [Example 26, (2R)-1-[3,5-Bis(trifluoromethyl)benzoyl]-2-(1H-indol-3-ylmethyl)-4-[3-(4,5,6,7-tetrahydrothieno[3,2-c]pyridin-5-yl)propyl]piperazine]: the inhibition at 1 mg/kg was > 80%. As for `O=C(c1cc(C(F)(F)F)cc(C(F)(F)F)c1)N1CCN(C/C=C\CN2CCOCC2)C[C@H]1Cc1c[nH]c2ccccc12` [Example 71, (2R) -1-[3,5-bis(trifluoromethyl)benzoyl]-2-(1H-indol-3-ylmethyl)-4-[(Z)-4-morpholino-2-butenyl]piperazine dihydrochloride], the figure is > 80%; as for `O=C(c1cc(C(F)(F)F)cc(C(F)(F)F)c1)N1CCN(CCCNCc2cccnc2)C[C@H]1Cc1ccc2ccccc2c1` [82-(12), (2R)-1-[3,5-Bis(trifluoromethyl)benzoyl]-2-(2-naphthylmethyl)-4-[N-(3-pyridylmethyl)-3-aminopropyl]piperazine trihydrochloride], > 80%; as for `O=C(c1cc(C(F)(F)F)cc(C(F)(F)F)c1)N1CCN(CC#CCN2CCOCC2)C[C@H]1Cc1ccc(Cl)c(Cl)c1` [Example 36, (2R)-1-[3,5-bis(trifluoromethyl)benzoyl]-2-(3,4-dichlorobenzyl)-4-(4-morpholino-2-butynyl) piperazine], > 80%.

Consider `O=C(c1cc(C(F)(F)F)cc(C(F)(F)F)c1)N1CCN(CCNN2CCOCC2)C[C@H]1Cc1ccc2ccccc2c1` [82-(8), (2R)-1-[3,5-Bis(trifluoromethyl)benzoyl]-2-(2-naphthylmethyl)-4-(N-morpholino-2-aminoethyl) piperazine dihydrochloride], for which the inhibition at 1 mg/kg was > 80%. As for `O=C(c1cc(C(F)(F)F)cc(C(F)(F)F)c1)N1CCN(CCN2CCSCC2)C[C@H]1Cc1ccc2ccccc2c1` [Example 44-(2), (2R)-1-[3,5-Bis(trifluoromethyl)benzoyl]-2-(2-naphthylmethyl)-4-(2-thiomorpholinoethyl) piperazine dihydrochloride], the figure is > 80%; as for `Cc1ccc(C[C@@H]2CN(CCCNN3CCOCC3)CCN2C(=O)c2cc(C(F)(F)F)cc(C(F)(F)F)c2)cc1C` [67-(4), (2R)-1-[3,5-Bis(trifluoromethyl)benzoyl]-2-(3,4-dimethylbenzyl)-4-[3-(morpholinoamino)propyl]piperazine dihydrochloride], > 80%; as for `Cc1ccc(C[C@@H]2CN(CCCN3CCCOCC3)CCN2C(=O)c2cc(C(F)(F)F)cc(C(F)(F)F)c2)cc1C` [Example 67-(7), (2R)-1-[3,5-Bis(trifluoromethyl)benzoyl]-2-(3,4-dimethylbenzyl)-4-(3-homomorpholinopropyl) piperazine dihydrochloride], > 80%. Turning to `O=C(c1cc(C(F)(F)F)cc(C(F)(F)F)c1)N1CCN(CCCN2CCSC2)C[C@H]1Cc1c[nH]c2ccccc12` [Example 44-(7), (2R)-4-[3-(Thiazolidin-3-yl)propyl]-1-[3,5-bis (trifluoromethyl)benzoyl]-2-(1H-indol-3-ylmethyl) piperazine dihydrochloride], the inhibition at 1 mg/kg is > 80%. With `O=C(c1cc(C(F)(F)F)cc(C(F)(F)F)c1)N1CCN(CCO)C[C@H]1Cc1ccc(Cl)c(Cl)c1` [Example 47, (2R)-2-(3,4-dichlorobenzyl)-1-[3,5-bis(trifluoromethyl)benzoyl]-4-(2-hydroxyethyl) piperazine hydrochloride] the figure was > 80%; with `O=C(c1cc(C(F)(F)F)cc(C(F)(F)F)c1)N1CCN(CCCN2CCOCC2)C[C@H]1Cc1ccc(Cl)c(Cl)c1` [Example 44-(5), (2R)-1-[3,5-Bis(trifluoromethyl)benzoyl]-2-(3,4-dichlorobenzyl)-4-(3-morpholinopropyl) piperazine dihydrochloride], > 80%. As for `Cc1ccc(C[C@@H]2CN(Cc3cn(C)cn3)CCN2C(=O)c2cc(C(F)(F)F)cc(C(F)(F)F)c2)cc1C` [52-(1), (2R)-1-[3,5-Bis(trifluoromethyl)benzoyl]-2-(3,4-dimethylbenzyl)-4-[(1-methyl-1H-imidazol-4-yl)methyl]piperazine dihydrochloride], the figure is > 80%; as for `O=C(c1cc(C(F)(F)F)cc(C(F)(F)F)c1)N1CCN(CC#CCN2CCOCC2)C[C@H]1Cc1ccc2ccccc2c1` [Example 35, (2R)-1-[3,5-bis(trifluoromethyl)benzoyl]-4-(4-morpholino-2-butynyl)-2-(2-naphthylmethyl) piperazine dihydrochloride], > 80%. For the compound `Cc1ccc(C[C@@H]2CN(CCCNCc3cccnc3)CCN2C(=O)c2cc(C(F)(F)F)cc(C(F)(F)F)c2)cc1C` [82-(1), (2R)-1-[3,5-Bis(trifluoromethyl)benzoyl]-2-(3,4-dimethylbenzyl)-4-[N-(3-pyridylmethyl)-3-aminopropyl]piperazine trihydrochloride], the inhibition at 1 mg/kg is > 80%.

Turning to `O=C(c1cc(C(F)(F)F)cc(C(F)(F)F)c1)N1CCN(C/C=C/CNCc2cccnc2)C[C@H]1Cc1ccc2ccccc2c1` [82-(10), (2R)-1-[3,5-Bis(trifluoromethyl)benzoyl]-2-(2-naphthylmethyl)-4-[(E)-N-(3-pyridylmethyl)-4-amino-2-butenyl]piperazine trihydrochloride], the inhibition at 1 mg/kg was > 80%. With `Cc1ccc(C[C@@H]2CN(CCNCc3cccnc3)CCN2C(=O)c2cc(C(F)(F)F)cc(C(F)(F)F)c2)cc1C` [Example 67-(5), (2R)-1-[3,5-Bis(trifluoromethyl)benzoyl]-2-(3,4-dimethylbenzyl)-4-[2-(3-pyridylmethylamino)ethyl]piperazine trihydrochloride] the figure was > 80%; with `O=C(c1cc(C(F)(F)F)cc(C(F)(F)F)c1)N1CCN(CCCCCN2CCOCC2)C[C@H]1Cc1c[nH]c2ccccc12` [Example 55, (2R)-1-[3,5-Bis(trifluoromethyl)benzoyl]-2-(1H-indol-3-ylmethyl)-4-(5-morpholinopentyl) piperazine dihydrochloride], > 80%; with `O=C(c1cc(C(F)(F)F)cc(C(F)(F)F)c1)N1CCN(CCNCc2cccnc2)C[C@H]1Cc1ccc2ccccc2c1` [82-(7), (2R)-1-[3,5-Bis(trifluoromethyl)benzoyl]-2-(2-naphthylmethyl)-4-[N-(3-pyridylmethyl)-2-aminoethyl]piperazine trihydrochloride], > 80%. As to `O=C(c1cc(C(F)(F)F)cc(C(F)(F)F)c1)N1CCN(CCCN2CCC(c3ccccc3)CC2)C[C@H]1Cc1c[nH]c2ccccc12` [Example 46, (2R)-1-[3,5-bis(trifluoromethyl)benzoyl]-2-(1H-indol-3-ylmethyl)-4-[3-(4-phenylpiperidino)propyl]piperazine], the inhibition at 1 mg/kg was > 80%. Regarding `O=C(c1cc(C(F)(F)F)cc(C(F)(F)F)c1)N1CCN(CCCNN2CCOCC2)C[C@H]1Cc1ccc2ccccc2c1` [82-(9), (2R)-1-[3,5-Bis(trifluoromethyl)benzoyl]-2-(2-naphthylmethyl)-4-(N-morpholino-3-aminopropyl) piperazine dihydrochloride], the inhibition at 1 mg/kg is > 80%. Turning to `Cc1ccc(C[C@@H]2CN(CCCN3C[C@@H](C)O[C@@H](C)C3)CCN2C(=O)c2cc(C(F)(F)F)cc(C(F)(F)F)c2)cc1C` [Example 81, (2R)-1-[3,5-Bis(trifluoromethyl)benzoyl]-2-(3,4-dimethylbenzyl)-4-[3-(cis-2,6-dimethylmorpholino)propyl]piperazine dihydrochloride], the inhibition at 1 mg/kg was > 80%.
